In ChEMBL document CHEMBL4229332, “Novel multi-target azinesulfonamides of cyclic amine derivatives as potential antipsychotics with pro-social and pro-cognitive effects” (Eur J Med Chem, 2018) one finds inhibition, Kb and Ki data, which are given here for two compounds.

Experiment [1] concerns the target T1, 5-hydroxytryptamine receptor 7 (Homo sapiens, UniProt P34969). The experiment is described as follows: Antagonist activity at human 5-HT7R expressed in CHO-K1 cells assessed as inhibition of serotonin-induced cAMP accumulation at 10^-6 M after 30 mins by chemiluminescence-based assay. It is filed as functional, cell-based. (In general: Changes in cAMP serve as a functional read-out for many G protein-coupled receptors.)

Experiment [2] addresses D(2) dopamine receptor (Homo sapiens) (UniProt P14416). The experiment in a line: Antagonist activity at human D2LR expressed in CHO-K1 cells assessed as inhibition of dopamine-induced calcium flux by fluorimetric method. It is filed as functional, cell-based. A general note: A change in cytosolic calcium serves as a functional read-out for many receptors and channels.
Experiment [3] deals with D(3) dopamine receptor (Homo sapiens) (UniProt P35462). The experiment in a line: Antagonist activity at human D3R expressed in CHO-K1 cells assessed as inhibition of dopamine induced cAMP accumulation after 30 mins by HTRF method. It is filed as functional, cell-based.
The target in experiment [4] is T2, 5-hydroxytryptamine receptor 2A (Homo sapiens, UniProt P28223). The experiment in a line: Antagonist activity at human 5-HT2AR expressed in HEK293 cells assessed as inhibition of serotonin-induced IP1 accumulation by chemiluminescence-based assay. It is filed as functional, cell-based.
Experiment [5] deals with T3, 5-hydroxytryptamine receptor 6 (Homo sapiens, UniProt P50406). The experiment in a line: Antagonist activity at human 5-HT6R expressed in CHO-K1 cells assessed as inhibition of serotonin-induced cAMP accumulation at 10^-6 M by chemiluminescence-based assay. It is filed as functional, cell-based.
Experiment [6] has as its target T1, 5-hydroxytryptamine receptor 7. The experiment is described as follows: Antagonist activity at human 5-HT7R expressed in human DLD1 cells assessed as inhibition of serotonin-induced cAMP accumulation by chemiluminescence-based assay. It is filed as functional, cell-based.
Experiment [7] concerns the target D(2) dopamine receptor (Homo sapiens) (UniProt P14416). The experiment in a line: Antagonist activity at human D2LR expressed in CHO-K1 cells assessed as inhibition of dopamine-induced cAMP accumulation by chemiluminescence-based assay. It is filed as functional, cell-based.
Experiment [8] shares this target. The experiment in a line: Antagonist activity at human D2LR expressed in CHO-K1 cells assessed as inhibition of dopamine-induced cAMP accumulation at 10^-6 M by chemiluminescence-based assay. It is filed as functional, cell-based.
The target in experiment [9] is D(3) dopamine receptor (Homo sapiens) (UniProt P35462). The experiment in a line: Antagonist activity at human D3R expressed in CHO-K1 cells assessed as inhibition of […] cAMP accumulation at 10^-6 M by chemiluminescence-based assay. It is filed as functional, cell-based.
Experiment [10] has as its target T4, 5-hydroxytryptamine receptor 1A (Homo sapiens, UniProt P08908).
T4 sequence (P08908 whole entry): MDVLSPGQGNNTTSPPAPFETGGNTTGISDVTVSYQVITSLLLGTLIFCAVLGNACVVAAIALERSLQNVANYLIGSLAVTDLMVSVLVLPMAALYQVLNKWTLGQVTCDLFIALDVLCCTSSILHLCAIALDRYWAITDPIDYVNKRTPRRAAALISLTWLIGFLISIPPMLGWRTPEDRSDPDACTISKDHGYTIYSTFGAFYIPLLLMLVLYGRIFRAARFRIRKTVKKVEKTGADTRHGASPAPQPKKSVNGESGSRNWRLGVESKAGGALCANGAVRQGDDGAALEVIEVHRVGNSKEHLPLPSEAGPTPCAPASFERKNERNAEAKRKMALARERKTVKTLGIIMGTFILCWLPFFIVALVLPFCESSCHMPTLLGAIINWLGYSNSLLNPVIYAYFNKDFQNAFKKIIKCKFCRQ
The experiment is described as follows: Displacement of [3H]-WAY100635 from recombinant full-length human 5-HT1AR expressed in CHO cells after 120 mins by scintillation counting method. It is filed as cell-based. Background: Loss of bound radioactivity is the signal in a displacement assay; it reports binding, not function.

The target of experiment [11] is Alpha-2C adrenergic receptor (Homo sapiens) (UniProt P18825). The experiment in a line: Displacement of [3H]-RX 821002 from human adrenergic alpha2C receptor expressed in CHO cells at 10^-6 M after 60 mins by scintillation counting method relative to control. It is filed as cell-based.
The target in experiment [12] is Beta-1 adrenergic receptor (Homo sapiens) (UniProt P08588). The experiment in a line: Displacement of [3H]-CGP 12177 from human adrenergic beta1 receptor expressed in HEK293 cells at 10^-6 M after 60 mins by scintillation counting method relative to control. It is filed as cell-based.
Experiment [13] has as its target Beta-2 adrenergic receptor (Homo sapiens) (UniProt P07550). The experiment in a line: Displacement of CGP 12177 from human adrenergic beta2 receptor expressed in CHO cells at 10^-6 M after 60 mins by scintillation counting method relative to contro. It is filed as cell-based.
Experiment [14] has as its target T5, 5-hydroxytryptamine receptor 1A (Homo sapiens) (UniProt P08908).
T5 sequence (whole entry): T4 sequence (P08908 whole entry)
The experiment in a line: Displacement of [3H]-WAY100635 from recombinant full-length human 5-HT1AR expressed in CHO cells at 10^-6 M after 120 mins by scintillation counting method relative to control. It is filed as cell-based.

In experiment [15] the target is T2, 5-hydroxytryptamine receptor 2A. The experiment in a line: Displacement of [3H]ketanserin from human recombinant 5-HT2A receptor at 10^-6 M after 60 mins by scintillation counting analysis relative to control.
In experiment [16] the target is T3, 5-hydroxytryptamine receptor 6. The experiment in a line: Displacement of [3H]LSD from human recombinant 5-HT6 receptor at 10^-6 M after 120 mins by scintillation counting analysis relative to control.
Experiment [17] deals with Sodium-dependent noradrenaline transporter (Homo sapiens) (UniProt P23975). The experiment is described as follows: Displacement of [3H]-nisoxetine from human NET expressed in CHO cells at 10^-6 M after 120 mins by scintillation counting method relative to control. It is filed as cell-based.
The target of experiment [18] is T6, Alpha-1A adrenergic receptor (Homo sapiens) (UniProt P35348).
T6 sequence (whole entry): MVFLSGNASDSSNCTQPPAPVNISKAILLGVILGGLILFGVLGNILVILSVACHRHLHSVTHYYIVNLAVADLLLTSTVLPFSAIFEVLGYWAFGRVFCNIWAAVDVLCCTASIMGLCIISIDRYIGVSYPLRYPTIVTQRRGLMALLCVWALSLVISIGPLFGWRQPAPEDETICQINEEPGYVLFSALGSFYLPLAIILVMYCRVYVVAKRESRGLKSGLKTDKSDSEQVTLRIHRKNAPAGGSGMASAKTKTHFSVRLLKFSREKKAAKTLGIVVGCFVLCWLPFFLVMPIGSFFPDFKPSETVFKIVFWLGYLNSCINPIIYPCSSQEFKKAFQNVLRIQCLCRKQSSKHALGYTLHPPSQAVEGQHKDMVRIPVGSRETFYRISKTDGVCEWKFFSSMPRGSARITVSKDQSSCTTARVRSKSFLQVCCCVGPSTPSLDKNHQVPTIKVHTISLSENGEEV
The experiment in a line: Antagonist activity at human adrenergic alpha1A receptor expressed in CHO cells assessed as inhibition of epinephrine-induced calcium flux by fluorimetric method. It is filed as functional, cell-based.

Experiment [19] deals with 5-hydroxytryptamine receptor 1B (Cricetulus griseus) (UniProt P46636). The experiment is described as follows: Antagonist activity at 5-HT1BR in CHO cells assessed as inhibition of serotonin-induced response. It is filed as functional, cell-based.
The target of experiment [20] is 5-hydroxytryptamine receptor 1D (Rattus norvegicus) (UniProt P28565). The experiment is described as follows: Antagonist activity at rat 5-HT1DR expressed in CHO cells assessed as inhibition of serotonin-induced response by cellular dielectric spectroscopy. It is filed as functional, cell-based.
Experiment [21] deals with T2, 5-hydroxytryptamine receptor 2A. The experiment in a line: Antagonist activity at human 5-HT2AR expressed in HEK293 cells assessed as inhibition of serotonin-induced IP1 accumulation after 60 mins by HTRF method. It is filed as functional, cell-based.
Experiment [22] addresses 5-hydroxytryptamine receptor 2C (Homo sapiens) (UniProt P28335). The experiment is described as follows: Antagonist activity at human 5-HT2CR expressed in HEK293 cells assessed as inhibition of serotonin-induced IP1 accumulation after 30 mins by HTRF method. It is filed as functional, cell-based.
Experiment [23] deals with Sodium-dependent dopamine transporter (Homo sapiens) (UniProt Q01959). The experiment in a line: Displacement of [3H]-BTCP from human DAT expressed in CHO cells at 10^-6 M after 120 mins by scintillation counting method relative to control. It is filed as cell-based.

Chain of D(2) dopamine receptor (Homo sapiens) (P14416 whole entry): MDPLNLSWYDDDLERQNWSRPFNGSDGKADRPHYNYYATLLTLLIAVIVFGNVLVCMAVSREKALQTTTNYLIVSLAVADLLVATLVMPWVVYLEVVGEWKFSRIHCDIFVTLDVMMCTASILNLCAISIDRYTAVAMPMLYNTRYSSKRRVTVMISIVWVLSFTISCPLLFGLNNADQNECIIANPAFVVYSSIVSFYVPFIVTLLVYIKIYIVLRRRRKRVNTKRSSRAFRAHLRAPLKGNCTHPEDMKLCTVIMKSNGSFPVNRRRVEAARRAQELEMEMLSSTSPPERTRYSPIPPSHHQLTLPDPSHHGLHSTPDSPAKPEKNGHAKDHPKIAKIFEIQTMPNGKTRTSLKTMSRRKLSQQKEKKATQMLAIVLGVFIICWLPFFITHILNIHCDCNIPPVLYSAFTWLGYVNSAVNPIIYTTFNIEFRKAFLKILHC
T2 sequence (P28223 whole entry): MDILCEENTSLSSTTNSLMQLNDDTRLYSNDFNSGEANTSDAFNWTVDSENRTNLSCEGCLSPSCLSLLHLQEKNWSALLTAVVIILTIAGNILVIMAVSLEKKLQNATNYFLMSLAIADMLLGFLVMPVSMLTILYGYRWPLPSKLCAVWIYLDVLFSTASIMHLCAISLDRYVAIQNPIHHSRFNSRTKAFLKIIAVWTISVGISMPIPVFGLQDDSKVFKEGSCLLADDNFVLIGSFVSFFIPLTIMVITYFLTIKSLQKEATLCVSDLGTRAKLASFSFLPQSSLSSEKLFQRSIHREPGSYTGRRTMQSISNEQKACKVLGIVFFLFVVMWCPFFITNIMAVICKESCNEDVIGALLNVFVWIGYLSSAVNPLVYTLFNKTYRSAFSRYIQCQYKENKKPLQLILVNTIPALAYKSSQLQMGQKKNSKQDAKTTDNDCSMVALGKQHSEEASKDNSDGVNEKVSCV
T1 sequence (P34969 whole entry): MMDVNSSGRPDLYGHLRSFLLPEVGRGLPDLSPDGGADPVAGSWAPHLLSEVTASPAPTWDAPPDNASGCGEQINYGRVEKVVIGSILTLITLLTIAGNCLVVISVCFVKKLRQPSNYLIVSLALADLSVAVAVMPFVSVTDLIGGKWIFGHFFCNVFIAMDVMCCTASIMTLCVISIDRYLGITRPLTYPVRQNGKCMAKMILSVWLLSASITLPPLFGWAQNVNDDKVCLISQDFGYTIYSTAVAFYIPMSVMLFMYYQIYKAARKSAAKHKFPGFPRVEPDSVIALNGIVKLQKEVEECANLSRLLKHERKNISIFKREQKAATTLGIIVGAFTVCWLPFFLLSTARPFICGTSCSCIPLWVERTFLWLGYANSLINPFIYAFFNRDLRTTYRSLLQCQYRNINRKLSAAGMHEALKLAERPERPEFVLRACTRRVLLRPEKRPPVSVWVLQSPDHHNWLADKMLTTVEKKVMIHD
T3 sequence (P50406 whole entry): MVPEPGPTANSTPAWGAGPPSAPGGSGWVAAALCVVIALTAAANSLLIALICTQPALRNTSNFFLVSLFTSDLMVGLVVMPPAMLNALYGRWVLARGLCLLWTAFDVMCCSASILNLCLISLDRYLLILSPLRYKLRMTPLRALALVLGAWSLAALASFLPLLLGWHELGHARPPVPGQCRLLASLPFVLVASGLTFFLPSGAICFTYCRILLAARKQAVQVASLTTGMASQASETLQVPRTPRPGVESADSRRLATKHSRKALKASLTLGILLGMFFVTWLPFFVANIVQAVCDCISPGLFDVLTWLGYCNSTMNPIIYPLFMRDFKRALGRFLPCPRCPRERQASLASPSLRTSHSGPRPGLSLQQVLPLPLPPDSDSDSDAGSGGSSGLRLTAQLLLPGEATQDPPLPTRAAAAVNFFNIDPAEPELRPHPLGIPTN
Chain of D(3) dopamine receptor (Homo sapiens) (P35462 whole entry): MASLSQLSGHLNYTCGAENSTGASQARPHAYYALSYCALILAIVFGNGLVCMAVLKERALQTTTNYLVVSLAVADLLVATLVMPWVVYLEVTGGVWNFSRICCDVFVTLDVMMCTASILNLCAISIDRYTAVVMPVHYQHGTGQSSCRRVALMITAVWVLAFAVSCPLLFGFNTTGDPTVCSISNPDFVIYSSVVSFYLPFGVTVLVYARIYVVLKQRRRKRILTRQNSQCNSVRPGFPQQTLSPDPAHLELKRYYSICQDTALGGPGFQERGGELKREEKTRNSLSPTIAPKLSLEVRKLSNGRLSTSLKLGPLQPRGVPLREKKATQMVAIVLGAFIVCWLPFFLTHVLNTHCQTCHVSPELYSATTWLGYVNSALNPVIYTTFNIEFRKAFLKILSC
Chain of 5-hydroxytryptamine receptor 2C (Homo sapiens) (P28335 whole entry): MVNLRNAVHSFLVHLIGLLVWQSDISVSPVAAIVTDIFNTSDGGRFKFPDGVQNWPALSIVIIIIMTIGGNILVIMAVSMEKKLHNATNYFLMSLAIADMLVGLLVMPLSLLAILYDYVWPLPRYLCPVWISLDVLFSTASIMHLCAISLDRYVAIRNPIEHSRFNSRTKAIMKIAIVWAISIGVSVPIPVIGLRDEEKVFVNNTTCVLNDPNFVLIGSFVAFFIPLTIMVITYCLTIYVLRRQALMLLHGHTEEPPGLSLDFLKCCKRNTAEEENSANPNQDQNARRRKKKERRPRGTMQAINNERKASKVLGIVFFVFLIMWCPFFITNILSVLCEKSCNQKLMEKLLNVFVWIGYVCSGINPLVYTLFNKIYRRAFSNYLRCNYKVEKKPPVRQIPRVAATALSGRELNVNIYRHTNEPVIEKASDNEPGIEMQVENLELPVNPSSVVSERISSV
Chain of Sodium-dependent noradrenaline transporter (Homo sapiens) (P23975 whole entry): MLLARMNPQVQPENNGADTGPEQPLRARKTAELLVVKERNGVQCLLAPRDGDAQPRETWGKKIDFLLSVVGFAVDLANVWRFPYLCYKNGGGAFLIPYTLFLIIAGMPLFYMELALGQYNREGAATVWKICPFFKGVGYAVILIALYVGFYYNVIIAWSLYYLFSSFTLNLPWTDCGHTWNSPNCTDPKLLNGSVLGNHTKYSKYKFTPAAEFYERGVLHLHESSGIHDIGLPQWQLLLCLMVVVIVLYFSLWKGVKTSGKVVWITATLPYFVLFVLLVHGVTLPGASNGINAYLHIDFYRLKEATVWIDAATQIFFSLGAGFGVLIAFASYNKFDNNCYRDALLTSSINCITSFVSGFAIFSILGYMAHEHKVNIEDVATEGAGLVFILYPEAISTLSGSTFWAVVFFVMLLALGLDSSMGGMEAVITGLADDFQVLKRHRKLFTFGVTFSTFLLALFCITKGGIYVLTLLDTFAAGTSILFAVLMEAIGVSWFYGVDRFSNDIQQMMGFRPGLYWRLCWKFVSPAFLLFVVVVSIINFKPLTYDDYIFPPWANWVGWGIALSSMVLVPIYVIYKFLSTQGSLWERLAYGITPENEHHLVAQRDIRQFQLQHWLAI
Chain of Beta-2 adrenergic receptor (Homo sapiens) (P07550 whole entry, looked up): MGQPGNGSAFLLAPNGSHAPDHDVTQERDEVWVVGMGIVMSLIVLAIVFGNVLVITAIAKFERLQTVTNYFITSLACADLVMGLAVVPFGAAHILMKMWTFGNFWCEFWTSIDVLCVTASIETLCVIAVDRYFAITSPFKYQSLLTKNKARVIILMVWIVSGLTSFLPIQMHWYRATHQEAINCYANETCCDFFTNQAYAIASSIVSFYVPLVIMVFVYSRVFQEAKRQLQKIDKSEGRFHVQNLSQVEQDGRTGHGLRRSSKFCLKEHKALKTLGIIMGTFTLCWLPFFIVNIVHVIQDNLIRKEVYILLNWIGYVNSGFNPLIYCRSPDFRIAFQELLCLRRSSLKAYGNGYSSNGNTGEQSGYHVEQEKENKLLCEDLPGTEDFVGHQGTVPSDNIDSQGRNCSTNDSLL
Chain of 5-hydroxytryptamine receptor 1B (Cricetulus griseus) (P46636 whole entry): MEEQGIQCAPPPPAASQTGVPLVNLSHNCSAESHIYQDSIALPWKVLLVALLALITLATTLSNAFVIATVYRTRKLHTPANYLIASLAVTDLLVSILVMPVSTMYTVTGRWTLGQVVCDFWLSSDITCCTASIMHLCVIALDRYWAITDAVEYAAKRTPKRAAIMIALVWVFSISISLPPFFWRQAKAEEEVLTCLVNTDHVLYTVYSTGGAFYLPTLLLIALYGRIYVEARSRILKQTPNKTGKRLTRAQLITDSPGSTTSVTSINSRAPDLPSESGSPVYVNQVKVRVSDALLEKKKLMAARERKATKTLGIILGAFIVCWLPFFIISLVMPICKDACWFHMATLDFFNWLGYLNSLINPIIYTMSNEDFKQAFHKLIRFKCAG
Chain of Beta-1 adrenergic receptor (Homo sapiens) (P08588 whole entry, looked up): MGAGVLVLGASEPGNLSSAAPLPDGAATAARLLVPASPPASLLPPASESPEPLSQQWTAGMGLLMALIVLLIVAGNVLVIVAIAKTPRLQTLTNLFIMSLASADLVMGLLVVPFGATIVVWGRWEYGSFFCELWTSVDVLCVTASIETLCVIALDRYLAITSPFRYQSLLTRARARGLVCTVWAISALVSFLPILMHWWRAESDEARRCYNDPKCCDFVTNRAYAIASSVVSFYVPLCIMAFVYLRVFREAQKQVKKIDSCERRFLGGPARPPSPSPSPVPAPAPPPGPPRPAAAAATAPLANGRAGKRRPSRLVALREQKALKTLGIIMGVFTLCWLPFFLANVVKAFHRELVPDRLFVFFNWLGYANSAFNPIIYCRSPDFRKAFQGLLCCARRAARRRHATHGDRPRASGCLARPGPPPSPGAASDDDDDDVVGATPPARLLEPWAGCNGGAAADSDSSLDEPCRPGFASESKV
Chain of 5-hydroxytryptamine receptor 1D (Rattus norvegicus) (P28565 whole entry): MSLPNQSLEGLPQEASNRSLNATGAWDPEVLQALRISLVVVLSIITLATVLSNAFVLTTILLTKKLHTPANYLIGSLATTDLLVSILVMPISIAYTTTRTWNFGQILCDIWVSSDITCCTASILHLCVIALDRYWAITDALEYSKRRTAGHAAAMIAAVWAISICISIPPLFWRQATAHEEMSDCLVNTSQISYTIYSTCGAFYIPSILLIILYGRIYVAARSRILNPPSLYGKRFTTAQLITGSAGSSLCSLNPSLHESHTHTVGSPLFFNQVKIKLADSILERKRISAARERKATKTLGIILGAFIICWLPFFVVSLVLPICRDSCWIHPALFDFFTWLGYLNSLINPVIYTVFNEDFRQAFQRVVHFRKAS

`O=S(=O)(c1cncc2ccccc12)N1CCC[C@H]1CCN1CCN(c2nsc3ccccc23)CC1`: the inhibition (as a rule, how much of the control response was suppressed) in experiment [1] amounted to 100%. For the same compound, the antagonist dissociation constant (Kb) (in general, the equilibrium dissociation constant of an antagonist, usually derived from a functional assay) worked out at 0.42 nM in [2] and 8.6 nM in experiment [3].

`O=S(=O)(c1cncc2ccccc12)N1CCC[C@H]1CCN1CCN(c2cccc3sccc23)CC1`: the Kb amounted to 2.3 nM in experiment [4]; 3.4 nM in experiment [6]; 3 nM in [7]; 13 nM in experiment [18]; 210 nM in [19]; 2.8 nM in experiment [20]. The antagonist dissociation constant (Kb) in experiment [21] worked out at 2.3 nM; in experiment [22] it was 24 nM. Moreover, the inhibition is 23% in experiment [5]; 92% in experiment [8]; 73% in experiment [9]; 99% in experiment [11]; 31% in experiment [12]; 25% in experiment [13]. The inhibition in [14] was found to be 100%; in experiment [15], 100%; in experiment [16] it was 23%; in experiment [17], 11%; in experiment [23], 19%. In experiment [10], the inhibition constant Ki (commonly a dissociation constant, usually derived from enzyme kinetics or from competition with a known ligand) was 18 nM.
